Test results taken from patent US20090306171A1, “INDOLE COMPOUNDS HAVING C4-AMIDE SUBSTITUENTS AND USE THEREOF AS PHOSPHOLIPASE-A2 INHIBITORS” (priority 2005, published 2009).

Key:
[1] = Example 6C pharmokinetic study (IV and oral); assay type: in vivo, mice; details: 30 mg/kg oral
Description: This example characterized ILY-4001 [2-(3-(2-amino-2-oxoacetyl)-1-(biphenyl-2-ylmethyl)-2-methyl-1H-indol-4-yloxy)acetic acid], alternatively referred to herein as methyl indoxam, with respect to activity, as determined by IC50 assay (Example 6A), with respect to cell absorption, as determined by in-vitro Caco-2 assay (Example 6B) and with respect to bioavailability, as determined using in-vivo mice studies (Example 6C).
This example evaluated the bioavailability of ILY-4001 [2-(3-(2-amino-2-oxoacetyl)-1-(biphenyl-2-ylmethyl)-2-methyl-1H-indol-4-yloxy)acetic acid], alternatively referred to herein as methyl indoxam. […]
Bioavailability was calculated as a ratio of AUC-oral/AUC-intravenous (IV). To determine this ratio, a first set of subject animals were given a measured intravenous (IV) dose of ILY-4001, followed by a determination of ILY-4001 levels in the blood at various time points after administration (e.g., 5 minutes through 24 hours). Another second set of animals was similarly dosed using oral administration, with blood levels of ILY-4001 determined at various time points after administration (e.g., 30 minutes through 24 hours). The level of ILY-4001 in systemic circulation were determined by generally accepted methods (for example as described in Evans, G., A Handbook of Bioanalysis and Drug Metabolism. Boca Raton, CRC Press (2004)). […]

[2] = Example 5A body weight gain, mice on high fat/high sucrose diabetogenic diet; assay type: in vivo; details: for body weight gain compared to the wild-type control group: week 4 and week 10
Experimental: (§1) ILY-4001 (FIG. 2) was evaluated as a PLA2 IB inhibitor in a set of experiments using wild-type mice and genetically deficient PLA2 (−/−) mice (also referred to herein as PLA2 knock-out (KO) mice). In these experiments, wild-type and PLA2 (−/−) mice were maintained on a high fat/high sucrose diet, details of which are described below.
(§2) Briefly, four groups were set up, each having six mice. Three of the groups included six wild-type PLA2 (+/+) mice in each group (eighteen mice total), and one of the groups included six genetically deficient PLA2 (−/−) mice. One of the wild-type groups was used as a wild-type control group, and was not treated with ILY-4001. The other two wild-type groups were treated with ILY-4001-one group at a lower dose (indicated as “L” in Table 1) of 25 mg/kg/day, and the other at a higher dose (indicated as “H” in Table 1) of 90 mg/kg/day. The group comprising the PLA2 (−/−) mice was used as a positive control group.
(§3) The experimental protocol used in this study was as follows. The four groups of mice, including wild type and isogenic PLA2 (−/−) C57BL/J mice were acclimated for three days on a low fat/low carbohydrate diet After the three day acclimation phase, the animals were fasted overnight and serum samples taken to establish baseline plasma cholesterol, triglyceride, and glucose levels, along with baseline body weight. The mice in each of the treatment groups were then fed a high fat/high sucrose diabetogenic diet (Research Diets D12331). 1000 g of the high fat/high sucrose D12331 diet was composed of casein (228 g), DL-methionine (2 g), maltodextrin 10 (170 g), sucrose (175 g), soybean oil (25 g), hydrogenated coconut oil (333.5 g), mineral mix S10001 (40 g), sodium bicarbonate (10.5 g), potassium citrate (4 g), vitamin mix V10001 (10 g), and choline bitartrate (2 g). This diet was supplemented with ILY-4001 treatments such that the average daily dose of the compound ingested by a 25 g mouse was: 0 mg/kg/day (wild-type control group and PLA2 (−/−) control group); 25 mg/kg/day (low-dose wild-type treatment group), or 90 mg/kg/day (high-dose wild-type treatment group). The animals were maintained on the high fat/high sucrose diet, with the designated ILY-4001 supplementation, for a period of ten weeks.
Body weight measurements were taken for all animals in all treatment and control groups at the beginning of the treatment period and at 4 weeks and 10 weeks after initiation of the study. (See Example 5A). Blood draws were also taken at the beginning of the treatment period (baseline) and at 4 weeks and 10 weeks after initiation of the study, in order to determine fasting glucose (See Example 5B). Cholesterol and triglyceride levels were determined from blood draws taken at the beginning of the treatment (baseline) and at ten weeks. (See Example 5C).
In the study generally described above in Example 5, body weight measurements were taken for all animals in all treatment and control groups at the beginning of the treatment period and at 4 weeks and 10 weeks after initiation of the study.

Stability at low pH = assay type: physicochemical
mouse PLA2 IB enzyme = mouse PLA2 IB enzyme (Mus musculus, UniProt Q9Z0Y2); details: pyrene substrate release from vesicles; Singer, Ghomashchi et al. 2002; read-out: IC50 value versus the mouse PLA2 IB enzyme; cited from earlier work
Sequence of mouse PLA2 IB enzyme (Q9Z0Y2 23-146): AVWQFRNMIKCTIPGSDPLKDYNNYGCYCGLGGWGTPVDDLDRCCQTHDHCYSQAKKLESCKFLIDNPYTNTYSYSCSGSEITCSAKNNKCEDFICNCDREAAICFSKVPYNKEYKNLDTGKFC

human PLA2 IB enzyme = human PLA2 IB enzyme (Homo sapiens, UniProt P04054); details: pyrene substrate release from vesicles; Singer, Ghomashchi et al. 2002; read-out: IC50 value versus the human PLA2 IB enzyme; cited from earlier work
Sequence of human PLA2 IB enzyme (P04054 23-148): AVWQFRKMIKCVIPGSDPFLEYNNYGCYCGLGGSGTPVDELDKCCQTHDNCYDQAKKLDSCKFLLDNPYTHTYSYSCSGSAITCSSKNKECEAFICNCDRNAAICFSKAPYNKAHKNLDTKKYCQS

Caco-2 monolayers = test: Example 6B Caco-2 permeability study; assay type: in vitro ADME, human; details: for apparent permeability: apical to basolateral, Caco-2 monolayers
Experimental: The culture medium was refreshed every 48 hours.
Papp=(dQ/dt)×(1/C0)×(1/A)

[3] = Example 5B fasting serum glucose, mice on high fat/high sucrose diabetogenic diet; assay type: in vivo; details: low dose (25 mg/kg/day)
Experimental: as §1, §2
The experimental protocol used in this study was as follows. […]
Body weight measurements were taken for all animals in all treatment and control groups at the beginning of the treatment period and at 4 weeks and 10 weeks after initiation of the study. […] Cholesterol and triglyceride levels were determined from blood draws taken at the beginning of the treatment (baseline) and at ten weeks. […]

[4] = Example 5C serum cholesterol and triglycerides, mice on high fat/high sucrose diabetogenic diet; assay type: in vivo; details: 10 weeks
Experimental: as §1, §2, §3
Body weight measurements were taken for all animals in all treatment and control groups at the beginning of the treatment period and at 4 weeks and 10 weeks after initiation of the study. (See Example 5A). Blood draws were also taken at the beginning of the treatment period (baseline) and at 4 weeks and 10 weeks after initiation of the study, in order to determine fasting glucose (See Example 5B). Cholesterol and triglyceride levels were determined from blood draws taken at the beginning of the treatment (baseline) and at ten weeks. […]

Compound	level of non-absorption from the GI tract into systemic circulation [1]	body weight gain compared to the wild-type control group ([2]; 25 mg/kg/d in diet)	body weight gain, extent of modulation relative to PLA2 (−/−) mice ([2]; 25 mg/kg/d, four weeks)	body weight gain compared to the wild-type control group ([2]; 90 mg/kg/d in diet)	body weight gain, extent of modulation relative to PLA2 (−/−) mice ([2]; 90 mg/kg/d, four weeks)	body weight gain, extent of modulation relative to PLA2 (−/−) mice ([2]; low-dose (25 mg/kg/d), ten weeks)	stability at low pH (Stability at low pH)	IC50 (mouse PLA2 IB enzyme)	IC50 (human PLA2 IB enzyme)	apparent permeability (Caco-2 monolayers)	absorption from the GI lumen (Caco-2 monolayers; based on Caco-2 assays and pharmokinetic studies)	fasting glucose levels ([3]; week four)	fasting glucose levels ([3]; week ten)	plasma levels of cholesterol ([4]; high dose (90 mg/kg/day))	plasma levels of triglycerides ([4]; high dose (90 mg/kg/day))	plasma levels of cholesterol ([4]; low dose (25 mg/kg/day))	plasma levels of triglycerides ([4]; low dose (25 mg/kg/day))
Cc1c(C(=O)C(N)=O)c2c(OCC(=O)O)cccc2n1Cc1ccccc1-c1ccccc1 [ILY-4001, 2-(3-(2-amino-2-oxoacetyl)-1-(biphenyl-2-ylmethyl)-2-methyl-1H-indol-4-yloxy)acetic acid]	~72%	significantly reduced body weight gains	approaching that achieved in the PLA2 (−/−) mice	significantly reduced body weight gains	approaching that achieved in the PLA2 (−/−) mice	comparable to that achieved in the PLA2 (−/−) mice	stable at low pH	~0.15 µM	~0.2 µM	around 1.66×10^−7 cm/s	relatively low absorption	moderately beneficial effect	a beneficial effect was not observed	substantially reduced	substantially reduced	substantially reduced	substantially reduced
Lucifer Yellow	–	–	–	–	–	–	–	–	–	around 2.82×10^−7+/−0.37×10^−7 cm/s	–	–	–	–	–	–	–
